Our source for the IC50 values is patent US20160297833A1, “THIENOPYRIMIDINES AS MKNK1 AND MKNK2 INHIBITORS” (BAYER PHARMA AKTIENGESELLSCHAFT, priority 2013, published 2016).

T1 sequence (Q9BUB5 1-424 isoform Q9BUB5-2 T344D): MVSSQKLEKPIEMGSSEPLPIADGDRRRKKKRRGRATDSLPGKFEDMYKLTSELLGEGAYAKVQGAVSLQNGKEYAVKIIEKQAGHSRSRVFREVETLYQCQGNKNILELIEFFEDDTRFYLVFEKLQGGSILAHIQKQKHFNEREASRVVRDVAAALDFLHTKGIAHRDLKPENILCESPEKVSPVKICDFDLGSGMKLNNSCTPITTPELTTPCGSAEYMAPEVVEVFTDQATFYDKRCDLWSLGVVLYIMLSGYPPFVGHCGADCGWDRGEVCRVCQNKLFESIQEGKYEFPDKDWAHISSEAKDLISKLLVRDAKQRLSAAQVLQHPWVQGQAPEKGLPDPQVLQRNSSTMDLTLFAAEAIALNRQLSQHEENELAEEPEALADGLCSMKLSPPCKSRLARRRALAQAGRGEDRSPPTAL

This assay has as its target T1, human full-length MKNK1 (Homo sapiens, UniProt Q9BUB5, T385D).
T1 construct: GST (N); purchased Carna Biosciences 02-145; host or cells: insect cells (baculovirus expression system)
Briefly: MKNK1 kinase high ATP assay (TR-FRET). It counts as biochemical. The settings on record: Table 1; MKNK1 kinase high ATP assay, 2 mM ATP; read-out: MKNK1 IC50. The method, boiled down: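 Full-length human MKNK1 (T385D) preincubated 15 min at 22 °C with compound in HEPES pH 7.5/MgCl2/DTT buffer; reaction with 2 mM ATP (final) and 0.06 μM biotinylated peptide (final), 30 min at 22 °C.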
By IC50 is commonly meant the midpoint of a concentration-inhibition curve. Turning to `COCCN(C)C(=O)[C@H]1CCc2c(sc3ncnc(Nc4cc5cn[nH]c5cc4Br)c23)C1` [Example 238, (7S)-4-[(6-Bromo-1H-indazol-5-yl)amino]-N-(2-methoxyethyl)-N-methyl-5,6,7,8-tetrahydro[1]benzothieno[2,3-d]pyrimidine-7-carboxamide], the IC50 was determined as 3.8 nM.

Turning to `C[C@@H]1CN(C(=O)[C@H]2CCc3c(sc4ncnc(Nc5cc6cn[nH]c6cc5N5CCC(N(C)C)CC5)c34)C2)C[C@H](C)O1` [Example 137, [(7S)-4-({6-[4-(Dimethylamino)piperidin-1-yl]-1H-indazol-5-yl}amino)-5,6,7,8-tetrahydro[1]benzothieno[2,3-d]pyrimidin-7-yl][(2R,6S)-2,6-dimethylmorpholin-4-yl]methanone], the IC50 was determined as 33 nM.

With `CCCN(C)C(=O)[C@H]1CCc2c(sc3ncnc(Nc4cc5cn[nH]c5cc4OCC)c23)C1` [Example 174, (7S)-4-[(6-Ethoxy-1H-indazol-5-yl)amino]-N-methyl-N-propyl-5,6,7,8-tetrahydro[1]benzothieno[2,3-d]pyrimidine-7-carboxamide], the IC50 amounted to 0.1 nM.

Regarding `COc1cc2[nH]ncc2cc1Nc1ncnc2sc3c(c12)CC[C@H](C(=O)N1C[C@@H](C)O[C@H](C)C1)C3` [Example 211, [(2R,6R)-2,6-Dimethylmorpholin-4-yl]{(7S)-4-[(6-methoxy-1H-indazol-5-yl)amino]-5,6,7,8-tetrahydro[1]benzothieno[2,3-d]pyrimidin-7-yl}methanone], the IC50 is 0.2 nM.

Regarding `CN(C)C(=O)[C@H]1CCc2c(sc3ncnc(Nc4cc5cn[nH]c5cc4OC4CCCC4)c23)C1` [Example 199, (7S)-4-{[6-(Cyclopentyloxy)-1H-indazol-5-yl]amino}-N,N-dimethyl-5,6,7,8-tetrahydro[1]benzothieno[2,3-d]pyrimidine-7-carboxamide], the IC50 was found to be 0.2 nM.

As for `COc1cc2[nH]ncc2cc1Nc1ncnc2sc3c(c12)CC[C@H](C(=O)N(C)S(C)(=O)=O)C3` [Example 216, (7S)-4-[(6-Methoxy-1H-indazol-5-yl)amino]-N-methyl-N-(methylsulfonyl)-5,6,7,8-tetrahydro[1]benzothieno[2,3-d]pyrimidine-7-carboxamide], the IC50 stood at 0.5 nM.

Consider `CSc1cc2[nH]ncc2cc1Nc1ncnc2sc3c(c12)CC[C@H](C(=O)N1CCC1)C3` [Example 250, Azetidin-1-yl[(7S)-4-{[6-(methylsulfanyl)-1H-indazol-5-yl]amino}-5,6,7,8-tetrahydro[1]benzothieno[2,3-d]pyrimidin-7-yl]methanone], for which the IC50 worked out at 2.8 nM.

As to `CN(C)CCOc1cc2[nH]ncc2cc1Nc1ncnc2sc3c(c12)CC[C@H](C(=O)N(C)C)C3` [Example 109, (7S)-4-({6-[2-(Dimethylamino)ethoxy]-1H-indazol-5-yl}amino)-N,N-dimethyl-5,6,7,8-tetrahydro[1]benzothieno[2,3-d]pyrimidine-7-carboxamide], the half-inhibitory concentration (IC50) was 16.5 nM.

For `CCN(C(=O)[C@H]1CCc2c(sc3ncnc(Nc4ccc5[nH]ncc5c4)c23)C1)C(C)C` [Example 8, (7S)—N-Ethyl-4-(1H-indazol-5-ylamino)-N-(propan-2-yl)-5,6,7,8-tetrahydro[1]benzothieno[2,3-d]pyrimidine-7-carboxamide], the IC50 stood at 8.3 nM.

As for `CCOC(=O)NCCOc1cc2[nH]ncc2cc1Nc1ncnc2sc3c(c12)CC[C@H](C(=O)N(C)C)C3` [Example 262, Ethyl {2-[(5-{[(7S)-7-(dimethylcarbamoyl)-5,6,7,8-tetrahydro[1]benzothieno[2,3-d]pyrimidin-4-yl]amino}-1H-indazol-6-yl)oxy]ethyl}carbamate], the IC50 is 0.2 nM.

`CN(C)C(=O)[C@H]1CCc2c(sc3ncnc(Nc4cc5cn[nH]c5cc4OCCN=[N+]=[N-])c23)C1` [Example 107, (7S)-4-{[6-(2-Azidoethoxy)-1H-indazol-5-yl]amino}-N,N-dimethyl-5,6,7,8-tetrahydro[1]benzothieno[2,3-d]pyrimidine-7-carboxamide]: the IC50 is 10 nM.

As for `COc1cc2[nH]ncc2cc1Nc1ncnc2sc3c(c12)CC[C@H](C(=O)N1C(=O)O[C@H](c2ccccc2)[C@@H]1C)C3` [Example 64, (4S,5R)-3-({(7S)-4-[(6-Methoxy-1H-indazol-5-yl)amino]-5,6,7,8-tetrahydro[1]benzothieno[2,3-d]pyrimidin-7-yl}carbonyl)-4-methyl-5-phenyl-1,3-oxazolidin-2-one], the IC50 stood at 10.5 nM.

Take `C[C@H]1COCCN1C(=O)[C@H]1CCc2c(sc3ncnc(Nc4cc5cn[nH]c5cc4OC4CNC4)c23)C1` [Example 268, [(7S)-4-{[6-(Azetidin-3-yloxy)-1H-indazol-5-yl]amino}-5,6,7,8-tetrahydro[1]benzothieno[2,3-d]pyrimidin-7-yl][(3S)-3-methylmorpholin-4-yl]methanone]: the IC50 was 0.6 nM.

In the case of `COCCN(C)C(=O)[C@H]1CCc2c(sc3ncnc(Nc4cc5cn[nH]c5cc4SC)c23)C1` [Example 253, (7S)—N-(2-Methoxyethyl)-N-methyl-4-{[6-(methylsulfanyl)-1H-indazol-5-yl]amino}-5,6,7,8-tetrahydro[1]benzothieno[2,3-d]pyrimidine-7-carboxamide], the IC50 is 1.9 nM.

Regarding `COc1cc2[nH]ncc2cc1Nc1ncnc2sc3c(c12)CC[C@@H](C(=O)N(C)CCO)C3` [Example 39, (7R)—N-(2-Hydroxyethyl)-4-[(6-methoxy-1H-indazol-5-yl)amino]-N-methyl-5,6,7,8-tetrahydro[1]benzothieno[2,3-d]pyrimidine-7-carboxamide], the IC50 was found to be 9.4 nM.

`COc1cc2[nH]ncc2cc1Nc1ncnc2sc3c(c12)CC[C@H](C(=O)N(C)CCN(C)CCN(C)C)C3` [Example 57, (7S)—N-(2-{[2-(Dimethylamino)ethyl](methyl)amino}ethyl)-4-[(6-methoxy-1H-indazol-5-yl)amino]-N-methyl-5,6,7,8-tetrahydro[1]benzothieno[2,3-d]pyrimidine-7-carboxamide]: the half-inhibitory concentration (IC50) is 0.7 nM.

With `CCOc1cc2[nH]ncc2cc1Nc1ncnc2sc3c(c12)CC[C@H](C(=O)N1CC[C@@H](N(C)C)C1)C3` [Example 190, [(3R)-3-(Dimethylamino)pyrrolidin-1-yl]{(7S)-4-[(6-ethoxy-1H-indazol-5-yl)amino]-5,6,7,8-tetrahydro[1]benzothieno[2,3-d]pyrimidin-7-yl}methanone], the 50% inhibitory concentration (IC50) was found to be 0.3 nM.

For the compound `COc1cc2[nH]ncc2cc1Nc1ncnc2sc3c(c12)CC[C@H](C(=O)N1CCCO1)C3` [Example 213, {(7S)-4-[(6-Methoxy-1H-indazol-5-yl)amino]-5,6,7,8-tetrahydro[1]benzothieno[2,3-d]pyrimidin-7-yl}(1,2-oxazolidin-2-yl)methanone], the IC50 was 0.4 nM.

`CCCC(=O)NCCOc1cc2[nH]ncc2cc1Nc1ncnc2sc3c(c12)CC[C@H](C(=O)N(C)C)C3` [Example 270, (7S)-4-({6-[2-(Butanoylamino)ethoxy]-1H-indazol-5-yl}amino)-N,N-dimethyl-5,6,7,8-tetrahydro[1]benzothieno[2,3-d]pyrimidine-7-carboxamide]: the IC50 was 1.1 nM.

As to `C[C@H](N)COc1cc2[nH]ncc2cc1Nc1ncnc2sc3c(c12)CC[C@H](C(=O)N(C)C)C3` [Example 142, (7S)-4-[(6-{[(2S)-2-Aminopropyl]oxy}-1H-indazol-5-yl)amino]-N,N-dimethyl-5,6,7,8-tetrahydro[1]benzothieno[2,3-d]pyrimidine-7-carboxamide], the IC50 is 3.5 nM.
